Experimental findings from ChEMBL document CHEMBL1155644, “New marine cembrane-type diterpenoids from the Okinawan soft coral Clavularia koellikeri” (J Nat Prod, 2000) are described below.

Holding throughout (format): functional, cell-based
The subject of assay [1] is MOLT-4. Kind of assay: Cytotoxicity against human MOLT4 cells at 0.6 uM/mL.
Assay [2] has as its system MOLT-4. Kind of assay: Cytotoxicity against human MOLT4 cells.
Assay [3] relates to DLD-1. Kind of assay: Cytotoxicity against human DLD1 cells at 0.6 uM/mL.
For assay [4], the system named is DLD-1. As to the kind of experiment: Cytotoxicity against human DLD1 cells.

In brackets after ≈: the same amount, converted by molar mass. Activity calls are given as the source filed them. The rule behind the calls is not given here.

Broadly, the IC50 is the midpoint of a concentration-inhibition curve. Read a low IC50 as greater potency.

For the molecule `C=C1C(=O)O[C@H]2/C=C(\C)C[C@H](OC(C)=O)/C=C(\C)C[C@H](OC(C)=O)/C=C(\C)C[C@H](OC(C)=O)[C@H]12`, the outcome in the assay with MOLT-4 [1] and in the assay with DLD-1 [3] was Active. Besides, the IC50 in the assay on MOLT-4 [2] stood at 0.9 µg/mL (≈ 1.9 µM); with DLD-1 [4], 4.2 µg/mL (≈ 8.85 µM).
As for `C=C1C(=O)O[C@H]2/C=C(\C)C[C@H](OC(C)=O)/C=C(\C)CC/C=C(\C)C[C@H](O)[C@H]12`, the result in the assay on MOLT-4 [1] and in the assay with DLD-1 [3] was Active.
